Where two headings read alike, the source gives them in different places. Marks after values point to notes of the source that are not given here.
Columns and labels:
[1] = test system: A2780 ovarian cancer cells; experiment: MTT cytotoxicity assay in A2780 (cisplatin sensitive) ovarian cancer cells; assay type: cell-based, human
Procedure: (§1) Cells were exposed to increasing concentrations of the complexes (0.01–100 μM) for 24 and/or 48 h, at 37 °C. The IC50 values were calculated from dose–response curves using the colorimetric MTT assay. […] Most complexes presented a similar cytotoxicity profile compared to Auranofin, but higher activity compared to Cisplatin, and, most importantly, were active in the Cisplatin-resistant OVCAR8 cells (Table 2).
(§2) The cytotoxic activity of the complexes was evaluated in the A2780 (cisplatin sensitive) (Sigma-Aldrich) and OVCAR8 (cisplatin resistant) (ATCC) ovarian cancer cells. Cells were grown in RPMI-1640 medium (Gibco, Thermo Fisher) supplemented with 10% fetal bovine serum (FBS) and were maintained at 37 °C in a humidified atmosphere with 5% CO2. The complexes were initially dissolved in DMSO and then in culture medium to prepare serial dilutions in the range 10^−9–10^−4 M. After 24 and/or 48 h incubation the cellular viability was measured by the colorimetric MTT assay, as previously described.

[2] = test system: C. albicans SC5134; experiment: MIC determination, C. albicans; assay type: cell-based, Candida albicans; conditions: RPMIG, 24 h, 35 °C
Description: (§3) The bacterial strains Escherichia coli ATCC25922 and Staphylococcus aureus Newman were used in this work and maintained in Lennox Broth (LB) solid medium, composed of 10 g/L tryptone, 5 g/L yeast extract, 5 g/L NaCl and 20 g/L agar. The fungal strains Candida albicans SC5134 and C. glabrata CBS138 were used in this work and maintained in YPD solid medium, composed of 20 g/L glucose, 20 g/L peptone, 10 g/L yeast extract and 15 g/L agar. The strains were isolated from human infections.
(§4) The antimicrobial activity of the complexes towards the bacterial and fungal strains was assessed by the determination of the Minimal Inhibitory Concentration (MIC) of each complex towards the indicated microbial strains, based on standard methods, and as previously described. […] Serial 1:2 dilutions of stock solutions were prepared for each complex in Mueller–Hinton (MH) broth (Fluka Analytical) or RPMI-1640 medium (Sigma) supplemented with 20 g/L glucose and buffered with 0.165 M morpholinepropanesulphonic acid (RPMIG) to pH 7.0. Solutions prepared with MH were used for testing bacteria, while those prepared with RPMIG were used for testing fungi. For antibacterial activity assays, the final concentrations ranged from 250 to 0.24 μg/mL (when stock solution final concentration was 10 mg/mL), 125 μg/mL to 0.12 μg/mL (when stock solution final concentration was 5 mg/mL) and 62.5 to 0.06 μg/mL (when stock solution final concentration was 2.5 mg/mL). For antifungal assays, the final concentrations ranged from 125 μg/mL to 0.12 μg/mL (when stock solution final concentration was 10 mg/mL), 62.5 to 0.06 μg/mL (when stock solution final concentration was 5 mg/mL) and 31.25 to 0.03 μg/mL (when stock solution final concentration was 2.5 mg/mL). Then, 100 μL aliquots of adequately diluted bacterial suspensions of S. aureus Newman or E. coli ATCC 25922 were mixed with the MH serially diluted complexes aliquots to obtain 5 × 10^5 CFU/mL. In the case of fungi, cultures were diluted to obtain a final optical density of 0.025, measured at 530 nm (OD530). Bacterial suspensions were prepared from cultures grown for 5 h in MH broth at 37 °C and 250 rev·min^−1 and adequately diluted with fresh MH medium, while fungal suspensions were prepared from overnight cultures grown in YPD broth at 30 °C and 250 rev.min^−1 and diluted in buffered RPMIG. After 22 h of incubation at 37 °C (bacteria) or 24 h at 35 °C (fungi), the wells’ content was resuspended by pipetting and the OD640 (bacteria) or OD530 (fungi) were measured in a SPECTROstar Nano microplate reader (BMG Labtech).
(§5) At least three independent experiments were performed in duplicate for each complex under study. […] Positive (no complex) and negative controls (no inoculum) were performed for each experiment. The effect of 5% (V/V) DMSO on microbial growth was also assessed.

[3] = test system: S. aureus Newman; experiment: MIC determination, S. aureus; assay type: cell-based, Staphylococcus aureus; conditions: MH broth, 22 h, 37 °C
Description: as §3, §4, §5

[4] = test system: E. coli ATCC25922; experiment: MIC determination, E. coli; assay type: cell-based, Escherichia coli; conditions: MH broth, 22 h, 37 °C
Description: as §3, §4, §5

[5] = test system: OVCAR8 ovarian cancer cells; experiment: MTT cytotoxicity assay in OVCAR8 (cisplatin resistant) ovarian cancer cells; assay type: cell-based, human; conditions: 48 h incubation
Procedure: as §1, §2

[6] = test system: C. glabrata CBS138; experiment: MIC determination, C. glabrata; assay type: cell-based, Candida glabrata; conditions: RPMIG, 24 h, 35 °C
Description: as §3, §4, §5

[7] = test system: P. berghei hepatic stage; experiment: In vitro activity against the hepatic stage of P. berghei infection (luciferase, Huh7 cells); assay type: cell-based, Plasmodium berghei; conditions: for IC50: hepatic stage, Huh7 cells, 46 hpi
Procedure: The in vitro liver stage activity of gold complexes was assessed against P. berghei-infected Huh7 cells, as previously described. Briefly, Huh7 cells were cultured in RPMI-1640 medium supplemented with 10% (v/v) fetal bovine serum, 1% (v/v) penicillin/streptomycin, 1% (v/v) glutamine, 1% (v/v) non-essential amino acids and 10 mM HEPES. On the day prior to infection, Huh7 cells were seeded in 96-well plates at a density of approximately 3.1 × 10^4 cell/cm^2 and incubated at 37 °C, 5% CO2. Stock solutions of the complexes were initially prepared in DMSO and serially diluted in infection medium, i.e., culture medium supplemented with gentamicin (50 µg/mL) and fungizone (0.8 µg/mL), to obtain the test concentrations. As a control, DMSO was diluted in infection medium to a percentage that equals that of the highest compound concentrations tested. These dilutions were added to the cells in triplicates and incubated for 1 h at 37 °C, 5% CO2, after which 1 × 10^4 luciferase-expressing P. berghei sporozoites were added to each well. Plates were centrifuged at 1800× g for 5 min at room temperature and incubated for the duration of the assay. At 46 h post-infection (hpi), the impact of each compound concentration on cell viability was assessed by the Alamar Blue (Invitrogen, Buckinghamshire, UK) assay, according to the manufacturer’s recommendations. Infection was next assessed by bioluminescence, employing the Firefly Luciferase Assay Kit 2.0 (Biotium, Fremont, CA, USA), according to the manufacturer’s recommendations. For IC50 determination, nonlinear regression analysis was employed to fit the normalized results of the dose–response curves, using GraphPad Prism 8 (GraphPad software, La Jolla, CA, USA).

[8] = Cyclic voltammetry; assay type: physicochemical; conditions: CH2Cl2, NBu4PF6, Pt, 100 mV.s^−1
Description: The redox properties of the various gold(III) bis(dithiolene) and bis(diselenolene) complexes were investigated by cyclic voltammetry using the same conditions, dichloromethane solutions and NBu4PF6 as supporting electrolyte. Under these conditions, the nature of the counter-ion, Ph4P^+ or Et4N^+, had no influence on the redox properties observed, due to ion exchange with the Bu4N^+ of the supporting electrolyte. Thus, only the result of one monoanion is included in Table 1, even if the two salts were analyzed. For all the investigated monoanionic bis(dithiolene) complexes, three redox processes are observed on the cyclic voltammograms. On the anodic scan, the two oxidation waves correspond to the oxidation of the monoanionic species into the neutral and to the monocationic complex. Most of these complexes had the tendency to deposit on the electrode once oxidized and frequently a strong desorption peak was observed on the reversible scan. This phenomenon occurs essentially for the complex with an exocyclic sulfur atom, [AuSR(=S)]^−1. On the cathodic scan, an irreversible process associated with the reduction in the monoanion into the dianion occurs (Scheme 2). […] The presence of oxygen instead of sulfur makes the oxidation of the monoanionic into the neutral species easier. On the other hand, the presence of electron-withdrawing substituents such as =C(CN)2 induces an anodic shift of the oxidation potentials by 300 mV, compared with the =O derivative, leading to a monoanion which is more difficult to oxidize than the other complexes of the series. […] Indeed, the potential difference between the second and the first oxidation potentials amounts to 470 mV and 410 mV for the =O and the =C(CN)2 derivatives, respectively, while for the =S analogues this value is smaller (170 mV). […] For comparison, we also investigated the redox behavior of Auranofin using the same experimental conditions in CH2Cl2 in the presence of NBu4PF6 as a supporting electrolyte. Using these conditions, upon anodic scan only one irreversible oxidation process is observed at 1.42 V vs. SCE. Therefore, all these monoanionic gold bis(dithiolene) and bis(diselenolene) complexes are easier to oxidize than Auranofin.
All reagents and materials from commercial sources were used without further purification. NMR spectra were recorded at room temperature using CDCl3 unless otherwise stated (Figures S7–S15). Chemical shifts are reported in ppm and ^1H NMR spectra were referenced to residual CHCl3 (7.26 ppm) and ^13C NMR spectra were referenced to CHCl3 (77.2 ppm). Mass spectra were recorded with an Agilent 6510 instrument for organics compounds and with a Thermo-Fisher Q-Exactive instrument for complexes by the Center Régional de Mesures Physiques de l’Ouest, Rennes. Cyclic voltammograms (CV)s were carried out on a 10^−3 M solution of complex in CH2Cl2-[NBu4] [PF6] 0.1 M. CVs were recorded on a Biologic SP-50 instruments at 0.1 Vs^−1 on a platinum disk electrode. Potentials were measured versus KCl Saturated Calomel Electrode (SCE). Column chromatography was performed using silica gel Merck 60 (70–260 mesh). The solvents were purified and dried by standard methods. The proligand 2-SEt(=C(CN2)), [72] and complexes [N][AuSMe(=S)], [73] [N][AuSEt(=S)], [74] [P][AuSEt(=O)], [75] [N][AuSeEt(=S)] [75] and [P][AuSPr(=S)] [76] were synthesized according to the previously reported procedure.

[9] = 24 h incubation, read-out: IC50 A2780, 24 h
[10] = 48 h incubation, read-out: IC50 A2780, 48 h

## CC[N+](CC)(CC)CC.CCn1c2c(sc1=S)[Se][Au-]1([Se]c3sc(=S)n(CC)c3[Se]1)[Se]2 [[N][AuSeEt(=S)]]
[1]; [9]
  IC50: 19.2 ± 2.01 µM
[1]; [10]
  IC50: 4.32 ± 1.17 µM
[2]
  MIC C. albicans SC5134: >62.5 mg/L
[3]
  MIC S. aureus Newman: 5.5 ± 0.3 mg/L
[4]
  MIC E. coli ATCC25922: >125 mg/L
[5]
  IC50: 29.4 ± 4.2 µM
[6]
  MIC C. glabrata CBS138: 1.6 ± 0.8 mg/L

## CC[N+](CC)(CC)CC.CCn1c2c(sc1=[Se])[Se][Au-]1([Se]c3sc(=[Se])n(CC)c3[Se]1)[Se]2 [[N][AuSeEt(=Se)]]
[1]; [9]
  IC50: 26.9 ± 3.02 µM
[1]; [10]
  IC50: 4.84 ± 1.6 µM
[2]
  MIC C. albicans SC5134: >31.25 mg/L
[3]
  MIC S. aureus Newman: >62.5 mg/L
[4]
  MIC E. coli ATCC25922: >62.5 mg/L
[5]
  IC50: 13.9 ± 1.61 µM
[6]
  MIC C. glabrata CBS138: 1.8 ± 0.5 mg/L

## O=C1C(O)=C([C@H]2CC[C@H](c3ccc(Cl)cc3)CC2)C(=O)c2ccccc21 [Atovaquone, reference compound]
[7]; in words
  activity against hepatic stage of P. berghei (positive control): nanomolar-ranged activity

## CCn1c2c(sc1=[Se])[Se][Au-]1([Se]c3sc(=[Se])n(CC)c3[Se]1)[Se]2.c1ccc([P+](c2ccccc2)(c2ccccc2)c2ccccc2)cc1 [[P][AuSeEt(=Se)]]
[1]; [9]
  IC50: 3.96 ± 2.21 µM
[1]; [10]
  IC50: 0.64 ± 0.19 µM
[7]
  IC50: 0.518 ± 0.246 µM
[2]
  MIC C. albicans SC5134: >62.5 mg/L
[3]
  MIC S. aureus Newman: >125 mg/L
[4]
  MIC E. coli ATCC25922: >125 mg/L
[5]
  IC50: 2.42 ± 1.52 µM
[6]
  MIC C. glabrata CBS138: >62.5 mg/L

## CCCn1c2c(sc1=S)[S][Au-]1([S]c3sc(=S)n(CCC)c3[S]1)[S]2.CC[N+](CC)(CC)CC [[N][AuSPr(=S)]]
[1]; [9]
  IC50: 2.93 ± 0.81 µM
[1]; [10]
  IC50: 2.28 ± 0.69 µM
[2]
  MIC C. albicans SC5134: 3.1 mg/L
[2]; listed as [ N ][AuSPr(=S)]
  MIC C. albicans SC5134: 3.1 ± 0.5 mg/L
[3]
  MIC S. aureus Newman: 1.1 ± 0.2 mg/L
[4]
  MIC E. coli ATCC25922: >250 mg/L
[5]
  IC50: 2.28 ± 0.19 µM
[6]
  MIC C. glabrata CBS138: 1.6 ± 0.8 mg/L

## CC(C)n1c2c(sc1=S)[Se][Au-]1([Se]c3sc(=S)n(C(C)C)c3[Se]1)[Se]2.CC[N+](CC)(CC)CC [[N][AuSeiPr(=S)]]
[1]; [9]
  IC50: 30.3 ± 3.39 µM
[1]; [10]
  IC50: 8.27 ± 1.12 µM
[2]
  MIC C. albicans SC5134: >125 mg/L
[3]
  MIC S. aureus Newman: 1.5 ± 0.1 mg/L
[4]
  MIC E. coli ATCC25922: >250 mg/L
[5]
  IC50: 8.76 ± 0.69 µM
[6]
  MIC C. glabrata CBS138: 2.1 ± 0.1 mg/L

## CCCn1c2c(sc1=S)[Se][Au-]1([Se]c3sc(=S)n(CCC)c3[Se]1)[Se]2.c1ccc([P+](c2ccccc2)(c2ccccc2)c2ccccc2)cc1 [[P][AuSePr(=S)]]
[1]; [9]
  IC50: 0.91 ± 0.4 µM
[1]; [10]
  IC50: 0.29 ± 0.1 µM
[7]
  IC50: 0.544 ± 0.0194 µM
[2]
  MIC C. albicans SC5134: >125 mg/L
[3]
  MIC S. aureus Newman: >250 mg/L
[4]
  MIC E. coli ATCC25922: >250 mg/L
[5]
  IC50: 1.57 ± 0.43 µM
[6]
  MIC C. glabrata CBS138: >125 mg/L

## CCCCn1c2c(sc1=S)[S][Au-]1([S]c3sc(=S)n(CCCC)c3[S]1)[S]2 [[AuSBu(=S)]^−1]
[8]
  E1/2 −1/0, first value of cell (anodic peak): 0.55 V vs. SCE
  E1/2 −1/0, second value of cell (cathodic peak): 0.50 V vs. SCE
  E −2/−1 (reduction of monoanion into dianion): −0.88 ** V vs. SCE
  Epa2 0/+1: 0.75 V vs. SCE
  Epc2 0/+1: 0.66 V vs. SCE
